Experimental data published in US12606554B2, “Compounds and pharmaceutical compositions thereof for the treatment of diseases” (ONCO3R Therapeutics BV, priority 2019, dated 2026).

Legend:
[1] = system: LPS triggered IL-10 secretion in monocytes; test: Monocytes assay: LPS-triggered IL-10 (ELISA); assay type: cell-based, human; details: LPS 200 ng/mL, supernatant after 4 h, maximal fold change vs LPS only
Procedure: (§1) SIK inhibition inhibits TNFα and increases IL-10 release in LPS triggered monocyte-derived macrophages (MdM) and dendritic cells (MdDCs) (Clark et al. 2012; Sundberg et al. 2014; Ozanne et al. 2015). This assay evaluates illustrative compounds of the invention for their inhibition of LPS-induced TNFα and LPS triggered IL-10 secretion in monocytes.
(§2) PBMCs are isolated from human blood samples (buffycoats). The buffy coat is aseptically transferred into a 50 mL Falcon tube, and diluted ½ in PBS. Falcon tubes are filled with 20 mL Lymphoprep™, on top of which 25 mL of the buffy coat is carefully added, tubes are centrifuged for 35 min at 400 g in temperature controlled centrifuge, without brake, at 25° C. PBMCs are aspirated from the white interface layer between sample and Lymphoprep™. PBMCs are washed five times in PBS. Cells are resuspended in RPMI 1640 complete medium supplemented with 10% FBS, 1% P/S, and cell density is determined using a hematologic analyzer (Sysmex XS-500i). […]
(§3) The columns are removed from the magnets, and 5 mL of Miltenyi buffer are added to the column to flush out the CD14+ fraction by pushing the plunger into the column. […] The obtained cell pellet is resuspended in 10 mL RPMI w/o FBS, and cell density is determined using a hematologic analyser (Sysmex XS-500i). […]

[2] = system: LPS triggered IL-10 secretion in monocyte-derived macrophages (MdM); test: MdM assay: LPS-triggered IL-10 (ELISA); assay type: cell-based, human; details: LPS 200 ng/mL, maximal fold change vs LPS only
Procedure: as §1, with “monocyte-derived macrophages.” for “monocytes.”
as §2, §3

Structure (SMILES)	IL-10 FCmax median [1]	IL-10 FCmax median [2]
COc1cc(-c2cnn3cc(OCCN4CCOCC4)ccc23)cc2c1C(=O)N(CC(F)(F)F)CC2 [Cpd 1, 8-methoxy-6-[6-(2-morpholinoethoxy)pyrazolo[1,5-a]pyridin-3-yl]-2-(2,2,2-trifluoroethyl)-3,4-dihydroisoquinolin-1-one]	+++ (>4.5)	++ (>1.5-4.5)
COc1cc(-c2cnn3cc(OC(C)(C)CO)ccc23)cc(OC(F)F)c1C(=O)N[C@@H]1C[C@@H]1F [Cpd 2, 2-(difluoromethoxy)-N-[(1R,2S)-2-fluorocyclopropyl]-4-[6-(2-hydroxy-1,1-dimethyl-ethoxy)pyrazolo[1,5-a]pyridin-3-yl]-6-methoxy-benzamide]	+ (≤1.5)	
